Like-named read-outs stand apart in the source and are kept apart here.
Legend:
Assay type in all cases: cell-based, Human
[1] = tested on: Jeko-1 cells; experiment: Inhibitory effect of compounds on Jeko-1 cell proliferation; conditions: read-out: IC50, inhibitory activity on Jeko-1 cell proliferation
Summary of the method: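 After 72 h incubation with compound, Jeko-1 cell viability was measured by Cell Counting-Lite 2.0 luminescence (10 min reaction). Inhibition was calculated relative to vehicle and cell-free background RLU, and IC50 was obtained by four-parameter curve fitting.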

[2] = tested on: HT29 cells; experiment: Inhibitory effect of compounds on HT29 cell proliferation; conditions: read-out: IC50, inhibitory activity on HT29 cell proliferation
Summary of the method: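 Adherent HT29 cells incubated with diluted compounds for 72 h; viability read by luminescence (Cell Counting-Lite 2.0, 10 min). Inhibition calculated against cell-free background and vehicle-treated cells; IC50 from four-parameter curve fit.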

[3] = tested on: NCI-H358 cells; experiment: Inhibitory effect of compounds on NCI-H358 cell proliferation
Summary of the method: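 Adherent NCI-H358 cells were exposed to compound for 72 h, then viability was read by luminescence (Cell Counting-Lite 2.0). Inhibition calculated from RLU relative to cell-free background and vehicle wells; IC50 from a four-parameter fit.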

[4] = tested on: HCC1806 cells; experiment: Inhibitory effect of compounds on HCC1806 cell proliferation
Summary of the method: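 HCC1806 cells, once adhered, were exposed to diluted compound for 72 h. Viability was read by Cell Counting-Lite 2.0 luminescence, inhibition calculated against vehicle and cell-free background RLU, and IC50 fitted with a four-parameter model.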

[5] = Homo sapiens, NCI-H358, 72 h, read-out: IC50, inhibitory activity on NCI-H358 cell proliferation, NCI-H358 human non-small cell lung cancer cells, 72 h incubation, Cell Counting-Lite 2.0
[6] = Homo sapiens, HCC1806, 72 h, read-out: IC50, inhibitory activity on HCC1806 cell proliferation, HCC1806 human breast squamous carcinoma cells, 72 h incubation, Cell Counting-Lite 2.0

**Q.** How did the IC50 ([1]; Homo sapiens, JeKo-1, 72 h) turn out when `CC#C[C@@H](O)C(=O)N[C@H]1CCc2c(C)c(F)cc3nc4c(c1c23)Cn1c-4cc2c(c1=O)COC(=O)[C@]2(O)CC` [Example 1 (1-1-A), (R)—N-((1S,9S)-9-ethyl-5-fluoro-9-hydroxy-4-methyl-10,13-dioxo-2,3,9,10,13,15-hexahydro-1H,12H-benzo[de]pyrano[3′,4′:6,7]indolizino[1,2-b]quinolin-1-yl)-2-hydroxypent-3-yneamide] was run?
**A.** The IC50 was 1.33 nM.

**Q.** What about the IC50 ([2]; Homo sapiens, HT-29, 72 h) of the same molecule?
**A.** The IC50 was 1.28 nM.

**Q.** And the IC50 [3, 5]?
**A.** Its IC50 is 65.2 nM.

**Q.** Which IC50 ([4]; HCC1806 human breast squamous carcinoma cells, 72 h incubation, Cell Counting-Lite 2.0, read-out: IC50, inhibitory activity on HCC1806 cell proliferation) does the source give for “(2S)—N-((1S,9S)-5-chloro-9-ethyl-9-hydroxy-4-methyl-10,13-dioxo-2,3,9,10,13,15-hexahydro-1H,12H-benzo[de]pyrano[3′,4′:6,7]indolizino[1,2-b]quinolin-1-yl)-2-hydroxypropylamine [Example 4 (2-7-A)]” here?
**A.** The IC50 was 1.25 nM.

**Q.** What about the IC50 ([1]; Jeko-1 human mantle cell lymphoma cells, 72 h incubation, Cell Counting-Lite 2.0) of the same molecule?
**A.** The IC50 was 0.28 nM.

**Q.** And the IC50 ([2]; HT29 human colon cancer cells, 72 h incubation, Cell Counting-Lite 2.0)?
**A.** Its IC50 is 1.56 nM.

**Q.** And the IC50 ([3]; NCI-H358 human non-small cell lung cancer cells, 72 h incubation, Cell Counting-Lite 2.0, read-out: IC50, inhibitory activity on NCI-H358 cell proliferation)?
**A.** The IC50 was 35.4 nM.

**Q.** How did the IC50 [4, 6] turn out when `CC[C@@]1(O)C(=O)OCc2c1cc1n(c2=O)Cc2c-1nc1cc(Cl)c(C)c3c1c2[C@H](NC(=O)[C@@H](O)C1CC1)CC3` [Example 5 (2-12-B), (2S)—N-((1R,9S)-5-chloro-9-ethyl-9-hydroxy-4-methyl-10,13-dioxo-2,3,9,10,13,15-hexahydro-1H,12H-benzo[de]pyrano[3′,4′:6,7]indolizino[1,2-b]quinolin-1-yl)-2-cyclopropyl-2-hydroxyacetamide] was run?
**A.** The IC50 was 1.07 nM.

**Q.** And the IC50 ([2]; Homo sapiens, HT-29, 72 h)?
**A.** Its IC50 is 2.34 nM.

**Q.** What about the IC50 [3, 5] of the same molecule?
**A.** Its IC50 is 15.8 nM.

**Q.** `CC[C@@]1(O)C(=O)OCc2c1cc1n(c2=O)Cc2c-1nc1cc(Cl)c(C)c3c1c2[C@@H](NC(=O)[C@@H](O)C1CC1)CC3` [Example 5 (2-12-A), (2S)—N-((1S,9S)-5-chloro-9-ethyl-9-hydroxy-4-methyl-10,13-dioxo-2,3,9,10,13,15-hexahydro-1H,12H-benzo[de]pyrano[3′,4′:6,7]indolizino[1,2-b]quinolin-1-yl)-2-cyclopropyl-2-hydroxyacetamide] was tested. Which IC50 [4, 6] did it give?
**A.** Its IC50 is 1.4 nM.

**Q.** And the IC50 ([2]; Homo sapiens, HT-29, 72 h)?
**A.** Its IC50 is 3.01 nM.

**Q.** And the IC50 [3, 5]?
**A.** Its IC50 is 17.6 nM.

From patent US20250346606A1, “CAMPTOTHECIN COMPOUND, PREPARATION METHOD THEREFOR, AND APPLICATION THEREOF” (SICHUAN KELUN-BIOTECH BIOPHARMACEUTICAL CO., LTD., priority 2021, published 2025)
